# Assays:
# [1] = biological target: T1, human 5-HT2A receptor (5-HT2AR) (Homo sapiens, UniProt P28223); test: TR-FRET saturation binding; details: labelled compound; CHO membranes; […] GppNHp, pH […]; equilibrium, […] min
# T1 construct: gene HTR2A; SNAP-tagged (SNAP-Lumi4-Tb labelled) receptor transiently expressed in CHO-K1 cells; membranes; plasmid from CisBio
# [2] = biological target: T1, human 5-HT2A receptor (5-HT2AR); test: TR-FRET equilibrium competition binding
# From the text: TR-FRET equilibrium competition binding on human 5-HT2A receptor (5-HT2AR)
# [3] = biological target: T1, human 5-HT2A receptor (5-HT2AR); test: biochemical; design: species or system CHO; details: read-out: koff (min^-1)
# T1 sequence (P28223 whole entry): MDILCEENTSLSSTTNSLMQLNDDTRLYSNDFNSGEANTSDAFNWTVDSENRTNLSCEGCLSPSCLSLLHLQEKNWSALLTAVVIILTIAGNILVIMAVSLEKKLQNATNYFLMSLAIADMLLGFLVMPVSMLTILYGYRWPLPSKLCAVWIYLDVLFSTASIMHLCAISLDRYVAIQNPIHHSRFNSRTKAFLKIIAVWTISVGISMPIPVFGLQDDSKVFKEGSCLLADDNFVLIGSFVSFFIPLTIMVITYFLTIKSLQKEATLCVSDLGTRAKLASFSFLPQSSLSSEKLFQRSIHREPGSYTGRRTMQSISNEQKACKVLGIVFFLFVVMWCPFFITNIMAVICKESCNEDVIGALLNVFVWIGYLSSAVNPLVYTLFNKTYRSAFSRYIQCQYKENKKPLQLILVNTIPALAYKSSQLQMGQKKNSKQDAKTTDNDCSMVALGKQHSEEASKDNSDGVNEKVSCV
Compound,Kd [1],Ki [2],koff [3]
4F4PP oxalate-red,3.98 ± 0.65 nM,,
CN1CC2c3ccccc3Oc3ccc(Cl)cc3C2C1 (centres unmarked) [Asenapine],,0.661 nM,0.7 min⁻¹
Cc1nc2n(c(=O)c1CCN1CCC(c3noc4cc(F)ccc34)CC1)CCCC2O (centres unmarked) [Paliperidone],,1.02 nM,0.23 min⁻¹

# Reference: paper doi:10.1101/2021.11.14.468520v1, “Exploring the kinetic selectivity of antipsychotics for dopamine D2 and 5-HT2A receptors: implications for the prevalence of EPS and receptor occupancy” (biorxiv, 2021)
